The values below come from patent US10017495B2, “Therapeutically active compounds and their methods of use” (AGIOS PHARMACEUTICALS, INC, priority 2013, dated 2018).

For one experiment, the target named is T1, IDH2 R140Q (Homo sapiens, UniProt P48735, R140Q).
T1 sequence (P48735 40-452 R140Q): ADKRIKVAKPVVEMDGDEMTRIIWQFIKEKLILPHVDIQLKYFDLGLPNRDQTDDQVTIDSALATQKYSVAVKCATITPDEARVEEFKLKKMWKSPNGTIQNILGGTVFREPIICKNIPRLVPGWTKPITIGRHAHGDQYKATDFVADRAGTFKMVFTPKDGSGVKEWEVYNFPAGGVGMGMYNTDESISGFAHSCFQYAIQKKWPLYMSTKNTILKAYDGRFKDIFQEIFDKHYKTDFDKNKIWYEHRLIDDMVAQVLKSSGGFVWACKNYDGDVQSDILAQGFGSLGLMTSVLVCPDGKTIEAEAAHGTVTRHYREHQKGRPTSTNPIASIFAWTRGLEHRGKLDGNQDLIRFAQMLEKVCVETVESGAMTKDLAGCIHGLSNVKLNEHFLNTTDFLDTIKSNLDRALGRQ
The experiment can be described thus: IDH2 R140Q enzymatic assay (cofactor depletion assay, diaphorase/resazurin readout). The format is biochemical. Conditions: read-out: Enz R140Q. As to the method: [The source words this procedure for another variant and says it was used here with some conditions changed.] Compounds are assayed for IDH2 R172K inhibitory activity through a cofactor depletion assay. […] The reaction is terminated by the addition of a second enzyme, diaphorase, and a corresponding substrate, resazurin. Diaphorase reduces resazurin to the highly fluorescent resorufin with the concomitant oxidation of NADPH to NADP, both halting the IDH2 reaction by depleting the available cofactor pool and facilitating quantitation of the amount of cofactor remaining after a specific time period through quantitative production of an easily detected fluorophore.
The test compound is then incubated for one hour at room temperature with the enzyme; before starting the IDH2 reaction with the addition of 10 μl of substrate mix containing 50 μM NADPH and 6.3 mM α-KG in the buffer described above. After a further one hour of incubation at room temperature, the reaction is halted and the remaining NADPH measured through conversion of resazurin to resorufin by the addition of 25 μl Stop Mix (36 μg/ml diaphorase enzyme and 60 μM resazurin; in buffer). After one minute of incubation the plate is read on a plate reader at Ex544/Em590.
A general note: The colour change of resazurin is a common sign of viable cells or microbes.

Experiment [1] deals with U87MG pLVX-IDH2 R140Q-neo cells. Put plainly: U87MG pLVX-IDH2 R140Q-Neo cell based assay (2-HG in media by LC-MS). The note with it: 48 hours; for IC50: Homo sapiens, U-87 MG. How it is done: U87MG pLVX-IDH2 R140Q-Neo Cell Based Assay.
U87MG pLVX-IDH2 R140Q-neo cells are grown in T125 flasks in DMEM containing 10% FBS, 1× penicillin/streptomycin and 500 μg/mL G418. They are harvested by trypsin and seeded into 96 well white bottom plates at a density of 5000 cell/well in 100 μl/well in DMEM with 10% FBS. No cells are plated in columns 1 and 12. Cells are incubated overnight at 37° C. in 5% CO2. The next day compounds are made up at 2× concentration and 100 ul are added to each cell well. The final concentration of DMSO is 0.2% and the DMSO control wells are plated in row G. The plates are then placed in the incubator for 48 hours. At 48 hours, 100 ul of media is removed from each well and analyzed by LC-MS for 2-HG concentrations. The cell plate is placed back in the incubator for another 24 hours. At 72 hours post compound addition, 10 mL/plate of Promega Cell Titer Glo reagent is thawed and mixed. The cell plate is removed from the incubator and allowed to equilibrate to room temperature. Then 100 ul of reagent is added to each well of media. The cell plate is then placed on an orbital shaker for 10 minutes and then allowed to sit at room temperature for 20 minutes. The plate is then read for luminescence with an integration time of 500 ms to determine compound effects on growth inhibition.

Molecules are shown by their SMILES.

Consider `CC(C)Nc1nc(Nc2ccnc(C(F)(F)F)c2)nc(C2=CCCCC2)n1` [Compound 1, 6-(cyclohex-1-en-1-yl)-N2-isopropyl-N4-(2-(trifluoromethyl)pyridin-4-yl)-1,3,5-triazine-2,4-diamine], for which the IC50 (on IDH2 R140Q; in experiment [1]) was < 100 nM in each case.
For `CC(C)Nc1nc(Nc2ccnc(C(F)(F)F)c2)nc(C2CCCCC2)n1` [Compound 2], the IC50 (on IDH2 R140Q; in experiment [1]) was < 100 nM in each case.
Take `CC(C)Nc1nc(Nc2ccnc(C(F)(F)F)c2)nc(C(C)(C)C)n1` [Compound 3, 6-(tert-butyl)-N2-isopropyl-N4-(2-(trifluoromethyl)pyridin-4-yl)-1,3,5-triazine-2,4-diamine]: the IC50 (on IDH2 R140Q; in experiment [1]) was 100 to 1000 nM throughout.
Consider `CC(C)Nc1nc(Nc2ccnc(C(F)(F)F)c2)nc(C2CCCC2)n1` [Compound 4, 6-cyclopentyl-N2-isopropyl-N4-(2-(trifluoromethyl)pyridin-4-yl)-1,3,5-triazine-2,4-diamine], for which the figures for the IC50 (on IDH2 R140Q; in experiment [1]) were < 100 nM and 100 to 1000 nM, respectively.
Taken in the same sequence, the figures for `CC(C)Nc1nc(Nc2ccnc(C(F)(F)F)c2)nc(C2CCC2)n1` [Compound 5, 6-cyclobutyl-N2-isopropyl-N4-(2-(trifluoromethyl)pyridin-4-yl)-1,3,5-triazine-2,4-diamine] were < 100 nM and 100 to 1000 nM.
Taken in the same sequence, the figures for `CC(C)Nc1nc(Nc2ccnc(C(F)(F)F)c2)nc(C2=CC(=O)CCC2)n1` [Compound 6, 3-(4-(isopropylamino)-6-((2-(trifluoromethyl)pyridin-4-yl)amino)-1,3,5-triazin-2-yl)cyclohex-2-enone] were 100 to 1000 nM and < 100 nM.
Taken in the same sequence, the figures for `CC(C)Nc1nc(Nc2ccnc(C(F)(F)F)c2)nc(C2=CC(O)CCC2)n1` (stereo not shown) [Compound 7, 3-(4-(isopropylamino)-6-((2-(trifluoromethyl)pyridin-4-yl)amino)-1,3,5-triazin-2-yl)cyclohex-2-enol] were < 100 nM and < 100 nM.
As to `CC(C)Nc1nc(Nc2ccnc(C(F)(F)F)c2)nc(C2CCCC(=O)C2)n1` (stereo not shown) [Compound 8, 3-(4-(isopropylamino)-6-((2-(trifluoro-methyl)pyridin-4-yl)amino)-1,3,5-triazin-2-yl)cyclohexanone], the IC50 is 100 to 1000 nM at IDH2 R140Q and < 100 nM in experiment [1].
Taken in the same sequence, the figures for `CC1CCCC(c2nc(Nc3ccnc(C(F)(F)F)c3)nc(NC(C)C)n2)C1` (stereo not shown) [Compound 9] were < 100 nM and 100 to 1000 nM.
Turning to `CC1CC(C)CC(c2nc(Nc3ccnc(C(F)(F)F)c3)nc(NC(C)C)n2)C1` (stereo not shown) [Compound 10], the IC50 at IDH2 R140Q lay in the range of 100 to 1000 nM.
As to `CC(C)Nc1nc(Nc2ccnc(C(F)(F)F)c2)nc(C2CCCC(O)C2)n1` (stereo not shown) [Compound 11, 3-(4-(isopropylamino)-6-((2-(trifluoromethyl)pyridin-4-yl)amino)-1,3,5-triazin-2-yl)cyclohexanol], the IC50 (at IDH2 R140Q; in experiment [1]) was < 100 nM in each case.
In the case of `CC(C)Nc1nc(Nc2ccnc(C(F)(F)F)c2)nc(C2=CC(=O)NCC2)n1` [Compound 12], the IC50 is < 100 nM at IDH2 R140Q and 100 to 1000 nM in experiment [1].
For `CC(C)Nc1nc(Nc2ccnc(C(F)(F)F)c2)nc(C2CCNC(=O)C2)n1` (stereo not shown) [Compound 13], at IDH2 R140Q, the IC50 lay within 1000 to 10000 nM. Besides, the “Cell R140Q” value in experiment [1] is “No fit”.
